Assay results published in patent publication US20180141987A1, “Novel Synthetic Antimicrobial Peptides” (priority 2014, published 2018).
In brackets after ≈: the same amount, converted by molar mass. Where two headings read alike, the source gives them in different places. No end group written: not given here.

How the values were obtained:
Aspergillus niger = tested on: Aspergillus niger
Experimental: (§1) iii. In Vitro Antifungal Assays • In vitro antifungal assays were performed in RPMI-1640 medium by broth micro dilution according to the Clinical and Laboratory Standards Institute (CLSI, formerly NCCL) methods M27-A3 and M-38-A2. […] Amphotericin B was used as positive control.

Candida albicans = tested on: Candida albicans
Experimental: as §1

Cryptococcus = tested on: Cryptococcus
Experimental: as §1

Fusarium oxysoprum = tested on: Fusarium oxysoprum
Experimental: as §1

Neurospora crassa = tested on: Neurospora crassa
Experimental: as §1

Ustilago maydis = tested on: Ustilago maydis
Experimental: as §1

Staphylococcus aureus = assay: microbe, parasite or virus in culture; assay type: cell-based
Pseudomonas aeruginosa = assay: microbe, parasite or virus in culture; assay type: cell-based
Escherichia coli = assay: microbe, parasite or virus in culture; assay type: cell-based
Salmonella enterica = assay: Inhibitory activity against bacteria (MIC 90); assay type: cell-based
Candida albicans cells [1] = assay: Membrane damage (propidium iodide fluorescence); assay type: cell-based; conditions: peptides at their respective MICs, FIG. 6
Experimental: (§2) FIG. 6 depicts the membrane damage and reactive oxygen species (ROS) generation by the instant peptides (a) Untreated Control, (b) positive control (c) […] (known peptide sequence, not novel, not to be covered in the invention, was used only for comparison), (d)Seq IDNo. 2, (e) Seq IDNo. 3 and (f) Seq IDNo. 1, after incubation of peptides at their respective MICs with the Candida albicans cells. i. Membrane Damage and ROS Generation • The membrane damage and formation of ROS (Reactive oxygen species) are the antifungal mechanisms of a number of antimicrobial peptides. The membrane damage (middle panel) and ROS generation by the instant peptides (right panel) was monitored after incubation of peptides at their respective MICs with the Candida albicans cells as depicted in FIG. 6(a-f). A red fluorescence resulting from the membrane impermeable DNA binding dye propidium iodide was observed indicating the membrane damage in the cells due to action of peptides under study. A green fluorescence resulting from the oxidation of dye Dichloro-dihydro-fluorescein diacetate DCFH-DA (non-fluorescent molecule) into DCF 2',7'-dichlorofluorescein. (fluorescent molecule) was observed indicating the presence of ROS.

Candida albicans cells [2] = assay: ROS generation (DCFH-DA fluorescence); assay type: cell-based; conditions: peptides at their respective MICs, FIG. 6
Experimental: as §2

Yeast-Hypha transition = Yeast-Hypha transition inhibition; assay type: cell-based; conditions: at 4 μg/ml; Table 10 has no title
Experimental: ii. Yeast-Hypha Transition Inhibition. • The peptides were also tested for the Yeast-Hypha transition inhibition. In many human and plant pathogenic fungi direct correlation between the ability of fungus to switch between yeast (Y) and hypha (H) forms and pathogenicity have been reported (Jacobsen et al., 2012; Thompson et al., 2011; Nadal et al., 2008).

[3] = tested on: human and plant pathogens; assay: In vitro antifungal assays, all cultures tested; assay type: cell-based; conditions: human and plant pathogenic fungi
Experimental: as §1

human erythrocyte = assay: Hemolytic activity, release of haemoglobin from erythrocyte suspensions in PBS; assay type: cell-based; conditions: human erythrocytes
Experimental: The toxicity of the present cationic, alpha-helical antimicrobial peptides on blood cells to determine their suitability for systemic application was performed. Lysis of erythrocyte membranes was determined by monitoring the release of haemoglobin from human erythrocyte suspensions in PBS, in relation to complete (100%) haemolysis. Table 13(a) provides the % hemolytic activity observed when a series of concentrations of the present peptides were brought in contact with erythrocytes. There was absence of any hemolytic activity upto concentrations in the range of 130 to 200 μg/mL. However at concentration above 250 μg/mL, a minimal level of hemolysis was observed.

MTT assay, cytotoxicity = assay type: cell-based, human; conditions: human, HeLa cells, concentration not given
Experimental: (§3) The cytolytic acivity of the present peptides was assessed by the MTT (3-(4,5-dimethylthiazol-2-yl)-2,5-diphenyltetrazolium bromide) assay against human cell lines (Hela cells). The cytotoxicity of on HeLa cells was assessed Approximately 10^4 cells per well were seeded in a 96-well plate and incubated for 12-16 h at 37° C.

Hela cells = assay: MTT assay, cytotoxicity; assay type: cell-based, human; conditions: concentration not given
Experimental: as §3

[4] = tested on: Gram positive and Gram negative bacteria; assay: Inhibitory activity against bacteria, all cultures; assay type: cell-based

| Compound | Y-H transition inhibition (Yeast-Hypha transition) [%] | MIC 90 (Aspergillus niger) [µg/mL] | MIC 90 (Candida albicans) [µg/mL] | MIC 90 (Cryptococcus) [µg/mL] | MIC 90 (Fusarium oxysoprum) [µg/mL] | MIC 90 (Neurospora crassa) [µg/mL] | MIC 90 (Ustilago maydis) [µg/mL] | Antifungal potency in words, all the cultures tested [3] | MIC 90 (Staphylococcus aureus) [µg/mL] | MIC 90 (Pseudomonas aeruginosa) [µg/mL] | MIC 90 (Escherichia coli) [µg/mL] | MIC 90 (Salmonella enterica) [µg/mL] | Hemolytic activity (human erythrocyte; 256 μg/mL) [%] | Hemolytic activity (human erythrocyte; 512 μg/mL) | Hemolytic activity (human erythrocyte; 1024 μg/mL) [%] | viability (MTT assay, cytotoxicity) [%] | O.D. (Treated Cells) (Hela cells) | also measured |
| --- | --- | --- | --- | --- | --- | --- | --- | --- | --- | --- | --- | --- | --- | --- | --- | --- | --- | --- |
| C[C@@H]1[C@H](O)[C@@H](C)/C=C/C=C/C=C/C=C/C=C/C=C/C=C/[C@H](O[C@@H]2O[C@H](C)[C@@H](O)[C@H](N)[C@@H]2O)C[C@@H]2O[C@](O)(C[C@@H](O)C[C@@H](O)[C@H](O)CC[C@@H](O)C[C@@H](O)CC(=O)O[C@H]1C)C[C@H](O)[C@H]2C(=O)O [Ampho B, Amphotericin B, reference compound] |  |  |  |  |  |  |  |  |  |  |  |  |  |  |  |  |  | MIC 90 (Aspergillus niger; Aspergillus niger, RPMI-1640): 8 µg/mL (≈ 8.66 µM); MIC 90 (Candida albicans; Candida albicans, RPMI-1640): 4 µg/mL (≈ 4.33 µM); MIC 90 (Cryptococcus; Cryptococcus, RPMI-1640): 4 µg/mL (≈ 4.33 µM); MIC 90 (Fusarium oxysoprum; Fusarium oxysoprum, RPMI-1640): 8 µg/mL (≈ 8.66 µM); MIC 90 (Neurospora crassa; Neurospora crassa, RPMI-1640): 4 µg/mL (≈ 4.33 µM); MIC 90 (Ustilago maydis; Ustilago maydis, RPMI-1640): 4 µg/mL (≈ 4.33 µM) |
| CC1(C)S[C@@H]2[C@H](NC(=O)[C@H](N)c3ccccc3)C(=O)N2[C@H]1C(=O)O [Ampicillin, ampicillin, reference compound] |  |  |  |  |  |  |  |  |  |  |  |  |  |  |  |  |  | MIC 90 (Staphylococcus aureus; Staphylococcus aureus, read-out: MIC 90): 2 µg/mL (≈ 5.72 µM); MIC 90 (Pseudomonas aeruginosa; Pseudomonas aeruginosa, read-out: MIC 90): 2 µg/mL (≈ 5.72 µM); MIC 90 (Escherichia coli; Escherichia coli, read-out: MIC 90): 4 µg/mL (≈ 11.4 µM); MIC 90 (Salmonella enterica; read-out: MIC 90): 4 µg/mL (≈ 11.4 µM) |
| FKLRAKIKVRLRAKIKL [D4E1, reference compound] | 95.2 | 16 | 8 | 4 | 16 | 8 | 32 | most potent | 2 | 2 | 2 |  |  |  |  |  |  | Relative potency in membrane damage and ROS generation (Candida albicans cells [1]): more potent; ROS generation (Candida albicans cells [2]): higher |
| FRLKFHLKF-NH2 [Seq Id No: 2] |  | 16 | 8 | 4 | 8 | 8 | 16 |  | 2 | 2 | 2 | 2 | 2 | 3.2%^ | 7 | 100 | 1.0185 |  |
| VLKKLKKLC-NH2 [Seq Id No: 3] | 87.5 | 16 | 64 | 16 | 32 | 16 | 32 | moderate activity | 4 | 4 | 2 | 2 | 2 | 2.9% | 5.7 | 88 | 0.8325 | Potency towards Gram positive versus Gram negative bacteria [4]: higher potency towards Gram positive |
